# Test results from patent EP0024842A1, “Methyl (5-(2-thienylhydroxymethyl)-1H-benzimidazol-2-yl) carbamate, process for its preparation and compositions containing it” (priority 1979, dated 1981).
# How the values were obtained:
# [1] = test system: pregnant Sprague-Dawley rats; assay: Embryotoxic activity in pregnant rats (antimitotic test according to Delatour and Richard), dose series; conditions: orally; for # Fetus: 8th to 15th day of gestation; for Embryo-toxicity %: daily from the 8th to the 15th day of gestation
# [2] = test system: rats; assay: Embryotoxic effect in rats, 'another test' at equimolar doses; assay type: in vivo, rat
smiles,measurement,setting,value
"COC(=O)Nc1nc2ccc(C(=O)c3cccs3)cc2[nH]1 [II, Methyl 5-[(2-thenoyl)-lH-benzimidazol-2-yl]-carbamate]",# Fetus,"[1]; 7.5 mg/kg/day, 40 implantations",0
same,Embryo-toxicity %,[1]; 7.5 mg/kg/day,100%
same,# Fetus,"[1]; 15 mg/kg/day, 30 implantations",0
same,Embryo-toxicity %,[1]; 15 mg/kg/day,100%
same,# Fetus,"[1]; 30 mg/kg/day, 28 implantations",0
same,Embryo-toxicity %,[1]; 30 mg/kg/day,100%
same,% (embryotoxic effect),[2]; Oral Dose Per Day 5.02 mg/kg,3.5%
same,Foet./ Implant,[2]; Oral Dose Per Day 5.02 mg/kg,55/57
"COC(=O)Nc1nc2ccc(C(O)c3cccs3)cc2[nH]1 (racemic) [I, methyl [5-(2-thienylhydroxymethyl)-lH-benzimidazol-2-yl]-carbamate]",Embryo-toxicity %,[1]; 3.03 mg/kg/day,12.06%
same,Embryo-toxicity %,[1]; 5.05 mg/kg/day,100%
same,% (embryotoxic effect),[2]; Oral Dose Per Day 5.05 mg/kg,100%
